Results published in PubChem BioAssay (NCI).
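How tested: cells in 96-well plates exposed to compound for 48 hours at five concentrations. At the GI50, growth is halved. TGI is the concentration that stops growth completely.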

What was measured:
Test in all cases: growth of human tumour cells (NCI), 48 h; in the data active = GI50 below about 0.43 µM; inactive = the rest
[1] = tested on: SF-539 CNS
[2] = tested on: LOX IMVI melanoma
[3] = tested on: HT29 colon
[4] = tested on: OVCAR-3 ovarian
[5] = tested on: ACHN renal
[6] = tested on: SF-268 CNS
[7] = tested on: TK-10 renal
[8] = tested on: HOP-92 NSCLC
[9] = tested on: MDA-MB-231 breast
[10] = tested on: U251 CNS
[11] = tested on: T-47D breast
[12] = tested on: A498 renal
[13] = tested on: NCI/ADR-RES ovarian
[14] = tested on: OVCAR-4 ovarian
[15] = tested on: NCI-H460 lung
[16] = tested on: SK-MEL-28 melanoma
[17] = tested on: SF-295 CNS
[18] = tested on: HCC-2998 colon
[19] = tested on: A549 NSCLC
[20] = tested on: SK-MEL-5 melanoma
[21] = tested on: COLO 205 colon
[22] = tested on: IGROV1 ovarian
[23] = tested on: MCF7 breast
[24] = tested on: NCI-H522 lung
[25] = tested on: HS 578T breast
[26] = tested on: NCI-H23 lung
[27] = tested on: OVCAR-8 ovarian
[28] = tested on: OVCAR-5 ovarian
[29] = tested on: PC-3 prostate
[30] = tested on: SN12C renal
[31] = tested on: K-562 leukemia
[32] = tested on: BT-549 breast
[33] = tested on: M14 melanoma
[34] = tested on: KM12 colon
[35] = tested on: UACC-62 melanoma
[36] = tested on: UO-31 renal
[37] = tested on: 786-0 renal
[38] = tested on: CCRF-CEM leukemia
[39] = tested on: SW-620 colon
[40] = tested on: MOLT-4 leukemia
[41] = tested on: SNB-75 CNS
[42] = tested on: SK-MEL-2 melanoma
[43] = tested on: CAKI-1 renal
[44] = tested on: RPMI-8226 leukemia
[45] = tested on: UACC-257 melanoma
[46] = tested on: SK-OV-3 ovarian
[47] = tested on: HCT-116 colon
[48] = tested on: RXF 393 renal
[49] = tested on: DU-145 prostate
[50] = tested on: MALME-3M melanoma
[51] = tested on: SNB-19 CNS
[52] = tested on: HOP-62 NSCLC
[53] = tested on: SR leukemia
[54] = tested on: HL-60(TB) leukemia
[55] = tested on: HCT-15 colon
[56] = tested on: MDA-MB-435

O=C(NNc1ccccc1)OCc1ccccc1
96.6 µM: TGI [50]
85.5 µM: TGI [32]
inactive: GI50 [1] 2.91 µM | GI50 [2] 15.2 µM | GI50 [3] 54.6 µM | GI50 [4] 21 µM | GI50 [5] 6.9 µM | GI50 [6] 9.27 µM | GI50 [7] 32.9 µM | GI50 [8] 14.7 µM | GI50 [9] 11.3 µM | GI50 [10] 70.6 µM | GI50 [11] 9.86 µM | GI50 [12] 13.3 µM | GI50 [13] 21.1 µM | GI50 [14] 18.6 µM | GI50 [15] 4.43 µM | GI50 [16] 98.3 µM | GI50 [17] 2.81 µM | GI50 [18] 17.6 µM | GI50 [19] 9.18 µM | GI50 [20] 16.8 µM | GI50 [21] 17 µM | GI50 [22] 15.2 µM | GI50 [23] 26.2 µM | GI50 [24] 33.6 µM | GI50 [25] 70.2 µM | GI50 [26] 69.5 µM | GI50 [27] 11.2 µM | GI50 [28] 8.05 µM | GI50 [29] 5.35 µM | GI50 [30] 73.8 µM | GI50 [31] 1.94 µM | GI50 [32] 16.6 µM | GI50 [33] 2.81 µM | GI50 [34] 3.92 µM | GI50 [35] 0.462 µM | GI50 [36] 2.88 µM | GI50 [37] 7.01 µM | GI50 [38] 3.94 µM | GI50 [39] 2.14 µM | GI50 [40] 5.89 µM | GI50 [41] > 100 µM | GI50 [42] 15.7 µM | GI50 [43] 1.02 µM | GI50 [44] 17.3 µM | GI50 [45] 18.5 µM | GI50 [46] > 100 µM | GI50 [47] 12.4 µM | GI50 [48] 91.6 µM | GI50 [49] 75.5 µM | GI50 [50] 20.1 µM | GI50 [51] 63.9 µM | GI50 [52] 84.5 µM | GI50 [53] 41.3 µM | GI50 [54] 3.55 µM | GI50 [55] 4.98 µM | GI50 [56] 4.13 µM
37 µM: TGI [36]
60.6 µM: TGI [33]
28.2 µM: TGI [17]
10.3 µM: TGI [1]
> 100 µM: TGI [2] | TGI [3] | TGI [4] | TGI [5] | TGI [6] | TGI [7] | TGI [8] | TGI [9] | TGI [10] | TGI [11] | TGI [12] | TGI [13] | TGI [14] | TGI [15] | TGI [16] | TGI [18] | TGI [19] | TGI [20] | TGI [22] | TGI [23] | TGI [24] | TGI [25] | TGI [26] | TGI [27] | TGI [28] | TGI [29] | TGI [30] | TGI [31] | TGI [34] | TGI [37] | TGI [38] | TGI [39] | TGI [40] | TGI [41] | TGI [42] | TGI [44] | TGI [45] | TGI [46] | TGI [47] | TGI [48] | TGI [49] | TGI [51] | TGI [52] | TGI [53] | TGI [55] | TGI [56]
46.4 µM: TGI [21]
8.43 µM: TGI [35]
58.7 µM: TGI [54]
14.2 µM: TGI [43]
